Reference: PubChem BioAssay (NCI)
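Tested at 5 concentrations; 48 h exposure; 96-well plates; endpoints linearly interpolated, else capped at highest concentration. TGI: concentration producing complete growth inhibition.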

Tests used:
Assay in all cases: NCI anticancer screen, dose series, 48 h
SF-539 CNS = tested on: SF-539 CNS
EKVX NSCLC = tested on: EKVX NSCLC
RXF 393 renal = tested on: RXF 393 renal
HL-60(TB) leukemia = tested on: HL-60(TB) leukemia
MOLT-4 leukemia = tested on: MOLT-4 leukemia
IGROV1 ovarian = tested on: IGROV1 ovarian
KM12 colon = tested on: KM12 colon
HOP-62 NSCLC = tested on: HOP-62 NSCLC
OVCAR-8 ovarian = tested on: OVCAR-8 ovarian
NCI-H226 lung = tested on: NCI-H226 lung
SNB-78 CNS = tested on: SNB-78 CNS
COLO 205 colon = tested on: COLO 205 colon
SK-OV-3 ovarian = tested on: SK-OV-3 ovarian
SR leukemia = tested on: SR leukemia
UACC-257 melanoma = tested on: UACC-257 melanoma
A498 renal = tested on: A498 renal
CAKI-1 renal = tested on: CAKI-1 renal
NCI/ADR-RES ovarian = tested on: NCI/ADR-RES ovarian
PC-3 prostate = tested on: PC-3 prostate
HS 578T breast = tested on: HS 578T breast

Compound | TGI (SF-539 CNS) [µM] | TGI (EKVX NSCLC) [µM] | TGI (RXF 393 renal) [µM] | TGI (HL-60(TB) leukemia) [µM] | TGI (MOLT-4 leukemia) [µM] | TGI (IGROV1 ovarian) [µM] | TGI (KM12 colon) [µM] | TGI (HOP-62 NSCLC) [µM] | TGI (OVCAR-8 ovarian) [µM] | TGI (NCI-H226 lung) [µM] | TGI (SNB-78 CNS) [µM] | TGI (COLO 205 colon) [µM] | TGI (SK-OV-3 ovarian) [µM] | TGI (SR leukemia) [µM] | TGI (UACC-257 melanoma) [µM] | TGI (A498 renal) [µM] | TGI (CAKI-1 renal) [µM] | TGI (NCI/ADR-RES ovarian) [µM] | TGI (PC-3 prostate) [µM] | TGI (HS 578T breast) [µM]
Cc1[nH]c(=O)nc2c1C(NCCCN(C)C)c1cc(Cl)ccc1N2 (stereo not drawn) | 26.3 | 30.1 | 27 | 34.4 | 44.6 | 30.1 | 30.3 | 27.9 | 28.7 | 31 | 33.2 | 26 | 32.1 | 27.3 | 26 |  |  |  |  | 
O=C(CC(CC(=O)Oc1c(Br)cc(Br)cc1C(=O)O)C(=O)Oc1c(Br)cc(Br)cc1C(=O)O)Oc1c(Br)cc(Br)cc1C(=O)O | > 100 | > 100 |  | 96.6 | > 100 | 87.3 | > 100 | > 100 | 99.6 | 57 | > 100 | > 100 | > 100 |  | > 100 | > 100 | > 100 |  |  | 
CC(=O)OC1CC2CCN3C(=O)c4cc5c(cc4[C@H](C1OC(C)=O)C23)OCO5 (stereo partly drawn) | > 100 | > 100 | > 100 | > 100 | > 100 | > 100 | > 100 | > 100 | > 100 | > 100 | > 100 | > 100 | > 100 | > 100 | > 100 |  |  |  |  | 
CC1=NN(C(=O)c2ccccc2O)C(=O)/C1=C/c1cccc(O)c1 | 4.29 | > 100 |  | > 100 | > 100 |  | > 100 |  | > 100 | 83.2 | > 100 | > 86.9 | > 100 | > 100 | > 100 | 0.323 | > 100 | > 100 | > 100 | 
NC1=NC2=c3ccccc3=C(c3cnccn3)C2(c2cnccn2)c2ccccc21 (stereo not drawn) | > 100 | > 100 | > 100 | > 100 | 95.8 | > 100 | > 100 | > 100 | > 100 | > 100 | > 100 | > 100 | > 100 | > 100 | > 100 | 69.1 | > 100 |  |  | 
O=C(C=C1SCCS1)/C=C\c1ccc(Cl)cc1 | > 100 | > 100 |  | > 100 | > 100 | > 100 | > 100 | > 100 | > 100 | > 100 | > 100 | > 100 | > 100 | > 100 | > 100 | > 100 | > 100 |  |  | 
CC(=O)OC(CN1CCN(c2ccccn2)CC1)Cn1sc2nc(C)cc(C)c2c1=O (stereo not drawn) | 29.2 | 32.4 | 35.6 | 55.5 | > 100 | 33.4 | 49 | 81.1 | 73.9 | > 100 |  | 31.2 | 35.9 | > 100 | 32 | 32.2 | 37.2 | 67.1 | 31.3 | 44.8
